# Source: PMC9782470, “Clickable C-Glycosyl Scaffold for the Development of a Dual Fluorescent and [^18F]fluorinated Cyanine-Containing Probe and Preliminary In Vitro/Vivo Evaluation by Fluorescence Imaging” (Pharmaceuticals, 2022)
# Assays:
# [1] = target: T1, αvβ3 integrin (Homo sapiens, UniProt P05106+P06756); experiment: Integrin αvβ3 solid-phase binding assay (competition with coated vitronectin); settings: coated human vitronectin 1 µg/mL, integrin αvβ3 2 µg/mL, compounds 1.6 nM–20 µM, 1 h room temperature, OD 450 nm, 3 independent series in duplicate, ± SD in Figure 2, read-out: IC50, binding of αvβ3 integrin onto vitronectin
# T1 construct: purchased Bio-techne, Lille, France
# Procedure: The affinity of the compounds for integrin protein was evaluated in terms of the half maximal inhibitory concentration (IC50 values) using a solid-phase assay, as previously described by Tobias G. Kapp et al.. Briefly, the surface of Maxisorp microplates (NUNC, ThermoFicher Scientific, Paris, France) was coated with 1 µg/mL human vitronectin (Bio-techne, Lille, France) overnight at +4 °C. The non-specific sites were blocked with a TSB buffer (20 mM Tris-HCl, 150 mM NaCl, 1 mM CaCl2, 1 mM MgCl2, 1 mM MnCl2, pH 7.5, 1% BSA) (Sigma-Aldrich, Saint-Quentin-Fallavier, France) for 1 h at 37 °C. […] After 1 h incubation at room temperature, the plates were washed, and the amount of bound integrin was stained by incubation with 2 µg/mL of mouse anti-human CD51/61 (BD Pharmingen, Paris, France) and 1 µg/mL of anti-mouse IgG horseradish peroxidase conjugate antibody (Bio-techne, France). The enzymatic reaction was carried out in the dark by the addition of the enzyme substrate (Bio-techne, France) and stopped after 10 min by the addition of H2SO4 (Stop Solution, Bio-techne, France). The optical densities were measured at 450 nm. The values were blank subtracted, and the results were expressed as relative absorbance percentage in comparison to the wells containing only integrin αvβ3.
# Affinities were estimated from 3 independent series performed in duplicate as IC50 values (i.e., the concentration of the compounds that displaced 50% of integrin binding calculated using one-site fit log-IC50 non-linear analysis regression using the GraphPad Prism 6 software (v 6.05, USA)).
# Figure 2 Solid-phase binding assay.
# [2] = tested on: U-87 MG cells; experiment: Cellular uptake, quantification of Cy5 incorporation; assay type: cell-based, human; settings: 24 h of incubation; Cy5 fluorescence of DMSO cell lysate (λex 645, λem 680 nm), calibration curve of each compound; n = 3
# Procedure: Cellular uptake was evaluated using a confocal microscopy on U-87 MG spheroids after 1, 4, and 24 h of exposure with conjugates 23 and 24 and c(RGDfK)-Cy5 (25) at 1 µM. The fluorescence signal appeared to be stable over time and the distribution of the compounds was homogeneous over all cells and throughout the spheroids (Figure 3A). These three compounds were localized rapidly in the cell cytoplasm due to receptor internalization after ligand binding. As expected from photophysical properties, the fluorescence signal was higher for compound 24 compared to 23. […] The amount of compounds seemed to decrease slightly at 4 h but stayed relatively stable until 24 h and represented 25.8, 14.7, and 28.6 pmoles/10^6 cells, respectively, for compounds 23, 24 and 25. […]
# U-87 MG cells were seeded in 12 multi-well plates at 10 × 10^4 cells/cm^2 and cultivated for 48 h. […] The fluorescence signals of Cy5 in the samples were measured in duplicate at an excitation wavelength of 645/9 nm and an emission wavelength of 680/20 nm (Tecan Infinite M200 Pro spectrofluorometer, Tecan, Männedorf, Switzerland). The fluorescence signals of known concentrations of Cy5-conjugates diluted in DMSO were used to draw a standard calibration curve. The concentration of Cy5 present in the samples (nM) was determined from the linear regression analysis of the standard calibration curve (Equation (1)). […] The results of the cellular uptake were expressed as the concentration of Cy5 (nM) incorporated per one million of cells (Equation (2)). […] (nM) = f (Fluorescence Intensity)(1) [Cy5] […]
# Figure 3 Cellular uptake of fluorescent conjugates 23 and 24. […] The intrinsic fluorescence of the compounds corresponds to Cyanine 5 (red fluorescence, λex 631/28 nm, λem 692/40 nm). […] (B) Quantification of Cy5 incorporation by U-87 MG cells at 1, 4, and 24 h of incubation. The amount of each compound was calculated using the fluorescence of Cy5 extrapolated from the calibration curves of each compound and normalized to 10^6 cells. n = 3.
# [3] = Absorption and fluorescence measurements; assay type: physicochemical; settings: for relative fluorescence quantum yield Φfluo: PBS pH 7.4, relative to commercial Cy5.Cl, λex = 640 nm, absorbance lower than 0.1; for Stokes shift Δs fluo / λem / λabs: aqueous PBS buffer 0.01 M, pH 7.4, T = 298 K; for λabs: diluted solution (µM)
# Procedure: Photophysical properties (absorption, excitation, emission, and relative fluorescence quantum yield) of compounds 23 and 24 were measured in an aqueous PBS buffer solution (pH = 7.4, T = 298 K) and compared to the commercially available Cy5 to detect any potential degradation that could occur during the synthesis and purification steps. […] (λabs/λem = 648/662 nm, Δs fluo = 326 cm^−1 for 23, λabs/λem = 644/658 nm, Δs fluo = 330 cm^−1 for 24).
# Absorption spectra were recorded in diluted solution (µM) in an aqueous PBS buffer (0.01 M, pH 7.4). Fluorescence quantum yields Φfluo were measured in diluted solutions with an absorbance lower than 0.1 using the following equation: ϕfluo, x=ϕfluo,ref(Gradx/Gradref)(nx2/nref2) where Φfluo is the fluorescence quantum yield; Grad is the gradient from the plot of integrated fluorescence intensity vs. absorbance; n the refractive index of the solvent; and the subscripts x and ref denote sample and reference. The fluorescence quantum yields of 23 and 24 were measured relative to the commercial Cy5.Cl in PBS for which Φfluo,ref = 0.13 [36]. The excitation of the reference and sample compounds was performed at the same wavelength (λex = 640 nm).
# [4] = Solubility in aqueous solution; assay type: physicochemical; settings: result in words
# [5] = tested on: ectopic U-87 MG tumors; assay type: in vivo, female athymic nude mice
# Procedure: (§1) In order to evaluate the in vivo biodistribution and tumor uptake of compound 24, which has the best photophysical and solubility properties in comparison to compound 23, mice bearing ectopic or orthotopic brain tumors were imaged in NIRF using a fluorescent small animal imager. […] Animal experiments were performed in accordance with the protocols approved by the French Ministry of Research after a review by the local animal protection and use committee (APAFIS# 30902). For ectopic tumor biodistribution, a U-87 MG tumor model was established by subcutaneous injection of U-87 MG cells (2 × 10^6 in 100 µL of 5% glucose solution) into the front right flank of female athymic nude mice (Charles Rivers, Wilmington, MA, USA). The mice were subjected to imaging studies when the tumor volume reached 500 mm^3 (3–4 wk after inoculation) at 1, 4, 6, and 24 h after the intravenous administration of the compounds 24 and 25 at 0.5 nmoles in 100 µL of water for injections mixed with ethanol (20% EtOH/80% water). For brain tumor imaging, U-87 MG spheroids of approximatively 500 µm diameter were implanted in the cortex of the right hemisphere and imaged 24 h after the administration of 0.5 nmoles of the compound 24 or 25. In the same manner, major organs were harvested and subjected to small animal NIRF imaging (Fluorvivo, Indec Biosystem, Los Altos, CA, USA). A customized filter set (excitation, 510–550 nm; emission, 630–690 nm) was used for data acquisition. All fluorescence images were acquired with a 1-s exposure. The fluorescence intensity of each tissue was measured after subtraction of the background signal from an ROI of the same size and shape drawn over an area without any tissue using imageJ. Figure 4 Biodistribution of compounds 24 and 25 in tumors and organs. (A) Kinetic distribution of compounds 24 and 25 in ectopic U-87 MG tumors at 1, 4, 6, and 24 h (representative images of the whole mice with the solid arrows showing the ectopic tumors at 24 h). (B) Biodistribution of the compounds in major organs at 24 h after their administration. […] An average of ratio uptake was calculated. […]
# [6] = tested on: orthotopic U-87 MG brain tumor; assay type: in vivo, female athymic nude mice; settings: 24 h after intravenous administration of 0.5 nmoles; NIRF imaging; average of ratio uptake
# Procedure: as §1
# [7] = cited from earlier work
# Procedure: Photophysical properties (absorption, excitation, emission, and relative fluorescence quantum yield) of compounds 23 and 24 were measured in an aqueous PBS buffer solution (pH = 7.4, T = 298 K) and compared to the commercially available Cy5 to detect any potential degradation that could occur during the synthesis and purification steps. […] (λabs/λem = 648/662 nm, Δs fluo = 326 cm^−1 for 23, λabs/λem = 644/658 nm, Δs fluo = 330 cm^−1 for 24). Conjugation of the ... || Absorption spectra were recorded in diluted solution (µM) in an aqueous PBS buffer (0.01 M, pH 7.4). Fluorescence quantum yields Φfluo were measured in diluted solutions with an absorbance lower than 0.1 using the following equation: ϕfluo, x=ϕfluo,ref(Gradx/Gradref)(nx2/nref2) where Φfluo is the fluorescence quantum yield; Grad is the gradient from the plot of integrated fluorescence intensity vs. absorbance; n the refractive index of the solvent; and the subscripts x and ref denote sample and reference. The fluorescence quantum yields of 23 and 24 were measured relative to the commercial Cy5 ...
IC50 [1] [nM],Structure (SMILES),amount of compound incorporated by U-87 MG cells [2] [pmoles/10^6 cells],relative fluorescence quantum yield Φfluo [3] [%],Stokes shift Δs fluo [3] [cm⁻¹],λem [3] [nm],λabs [3] [nm],solubility in aqueous solution [4],"ratio of fluorescence uptake, ectopic tumor to healthy brain ([5]; 24 h after intravenous administration of 0.5 nmoles, NIRF imaging, average of ratio uptake) [fold]","route of elimination ([5]; mouse, in vivo)","ratio of fluorescence uptake, orthotopic brain tumor to healthy brain [6] [fold]",fluorescence quantum yield Φfluo of the reference ([7]; PBS) [%],"fluorescence quantum yield Φfluo,ref ([7]; in PBS, as fraction)"
10,CN1\C(=C/C=C/C=C/C2=[N+](CCCCCC(=O)NCCCn3cc(COCC[C@H]4O[C@H](CF)[C@@H](OCc5cn(CCCCCC(=O)NCCCC[C@@H]6NC(=O)[C@@H](Cc7ccccc7)NC(=O)[C@H](CC(=O)O)NC(=O)CNC(=O)[C@H](CCCNC(=N)N)NC6=O)nn5)[C@H]4OCc4cn(CCCCCC(=O)NCCCC[C@@H]5NC(=O)[C@@H](Cc6ccccc6)NC(=O)[C@H](CC(=O)O)NC(=O)CNC(=O)[C@H](CCCNC(=N)N)NC5=O)nn4)nn3)c3ccccc3C2(C)C)C(C)(C)c2ccccc21 [Compound 23],25.8,8,326,662,648,poor solubility,–,–,–,–,–
16,CN1\C(=C/C=C/C=C/C2=[N+](CCCCCC(=O)NCCCn3cc(COCC[C@H]4O[C@H](CF)[C@@H](OCc5cn(CCOCCOCCOCCOCCC(=O)NCCCC[C@@H]6NC(=O)[C@@H](Cc7ccccc7)NC(=O)[C@H](CC(=O)O)NC(=O)CNC(=O)[C@H](CCCNC(=N)N)NC6=O)nn5)[C@H]4OCc4cn(CCOCCOCCOCCOCCC(=O)NCCCC[C@@H]5NC(=O)[C@@H](Cc6ccccc6)NC(=O)[C@H](CC(=O)O)NC(=O)CNC(=O)[C@H](CCCNC(=N)N)NC5=O)nn4)nn3)c3ccccc3C2(C)C)C(C)(C)c2ccccc21 [Compound 24],14.7,14,330,658,644,–,100,urinary tract and liver metabolism,40,–,–
8540,CN1C(=CC=CC=CC2=[N+](CCCCCC(=O)NCCCC[C@@H]3NC(=O)[C@@H](Cc4ccccc4)NC(=O)[C@H](CC(=O)O)NC(=O)CNC(=O)[C@H](CCCNC(=N)N)NC3=O)c3ccccc3C2(C)C)C(C)(C)c2ccccc21 [Compound 25],28.6,–,–,–,–,–,–,–,–,–,–
–,CN1/C(=C/C=C/C=C/C2=[N+](CCCCCC(=O)O)c3ccccc3C2(C)C)C(C)(C)c2ccccc21 [Cy5],–,–,–,–,–,–,–,–,–,13,0.13
